Laboratory results as given in patent US5773438A, “Synthetic matrix metalloprotease inhibitors and use thereof” (Glycomed Incorporated, priority 1994, dated 1998).
“Also recorded” adds a separate entry of the source.

How the values were obtained:
[1] = target: T1, human skin fibroblast collagenase (Homo sapiens, UniProt P03956); assay: inhibition of collagenase, synthetic thiol ester substrate, Ki (Table 1); format: biochemical
T1 construct: endogenous in cells; host or cells: human skin fibroblasts
T1 sequence (P03956 100-469): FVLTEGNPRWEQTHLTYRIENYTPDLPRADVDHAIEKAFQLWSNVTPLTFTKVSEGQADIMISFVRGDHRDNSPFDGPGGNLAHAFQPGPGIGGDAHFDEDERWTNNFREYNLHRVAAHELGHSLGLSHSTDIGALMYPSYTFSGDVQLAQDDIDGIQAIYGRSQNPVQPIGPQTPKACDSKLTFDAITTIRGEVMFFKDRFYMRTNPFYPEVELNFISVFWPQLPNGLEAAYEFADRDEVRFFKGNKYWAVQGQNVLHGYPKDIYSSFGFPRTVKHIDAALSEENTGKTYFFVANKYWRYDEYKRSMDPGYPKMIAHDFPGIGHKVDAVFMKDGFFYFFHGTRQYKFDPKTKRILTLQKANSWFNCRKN
Protocol: Specifically, assay of inhibition activity can be conducted as follows. Inhibitors may be assayed against crude or purified human skin fibroblast collagenase, or purified human gingival fibroblast collagenase using the synthetic thiol ester substrate at pH 6.5 exactly as described by Kortylewicz & Galardy, J Med Chem (1990) 33:263-273, at a collagenase concentration of 1-2 nM. The candidate inhibitors are tested for their ability to inhibit crude collagenase and gelatinase from human skin fibroblasts, crude collagenase and gelatinase from purulent human neutrophils in this assay.

[2] = target: T2, Natural human 72kD gelatinase (Homo sapiens, UniProt P08253); assay: inhibition of 72kD gelatinase (Table 2); format: biochemical; conditions: read-out: 72kD G inhibitory activity
T2 sequence (P08253 110-660): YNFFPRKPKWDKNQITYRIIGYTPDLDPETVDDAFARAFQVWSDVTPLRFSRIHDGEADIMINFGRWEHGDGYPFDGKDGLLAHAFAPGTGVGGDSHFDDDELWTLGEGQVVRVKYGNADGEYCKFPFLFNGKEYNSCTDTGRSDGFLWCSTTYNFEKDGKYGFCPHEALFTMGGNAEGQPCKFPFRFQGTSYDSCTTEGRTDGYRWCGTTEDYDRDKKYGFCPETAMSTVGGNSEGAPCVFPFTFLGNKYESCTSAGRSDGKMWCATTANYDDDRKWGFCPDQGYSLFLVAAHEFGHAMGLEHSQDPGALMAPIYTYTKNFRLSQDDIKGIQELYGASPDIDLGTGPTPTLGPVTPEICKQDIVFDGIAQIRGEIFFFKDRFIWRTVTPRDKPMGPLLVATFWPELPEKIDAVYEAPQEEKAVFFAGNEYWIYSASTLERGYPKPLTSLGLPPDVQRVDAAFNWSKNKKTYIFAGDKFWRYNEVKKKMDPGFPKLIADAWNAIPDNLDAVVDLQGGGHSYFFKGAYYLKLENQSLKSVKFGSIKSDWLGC
Protocol: (§6) Specifically, assay of inhibition activity can be conducted as follows. […] Assays for inhibition of human stromelysin are conducted as described by Teahan, J., et al., Biochemistry (1989) 20:8497-8501.
(§7) Assay of inhibition activity can be conducted using a fluorogenic substrate developed by Knight et al., FEBS Letters (1992) 296:263. This method uses a fluorometer to determine the rate of substrate hydrolysis in a 96 well plate format. Reaction rates are determined at several substrate concentrations, and multiple inhibitor levels. The data are analyzed by Lineweaver-Burk, Dixon and Henderson plot analyses (Enzyme Kinetics (1975) Irwin Segal (John Wiley & Sons, Inc., publishers), and as described by Henderson, Biochem J. (1972) 127:321). The substrate levels range from 10-30μM. […] Inhibitors may be assayed against purified 72 kD gelatinase, 92 kD gelatinase, neutrophil collagenase, stromelysin or other proteases as appropriate. The enzymes are activated at 37° C. with APMA (4-aminophenylmercuric acetate), and the assays are carried out at room temperature.

Stromelysin = Stromelysin (Homo sapiens, UniProt P08254); assay: inhibition of stromelysin (Table 2); format: biochemical; conditions: read-out: Strom inhibitory activity
Chain of Stromelysin (P08254 100-477): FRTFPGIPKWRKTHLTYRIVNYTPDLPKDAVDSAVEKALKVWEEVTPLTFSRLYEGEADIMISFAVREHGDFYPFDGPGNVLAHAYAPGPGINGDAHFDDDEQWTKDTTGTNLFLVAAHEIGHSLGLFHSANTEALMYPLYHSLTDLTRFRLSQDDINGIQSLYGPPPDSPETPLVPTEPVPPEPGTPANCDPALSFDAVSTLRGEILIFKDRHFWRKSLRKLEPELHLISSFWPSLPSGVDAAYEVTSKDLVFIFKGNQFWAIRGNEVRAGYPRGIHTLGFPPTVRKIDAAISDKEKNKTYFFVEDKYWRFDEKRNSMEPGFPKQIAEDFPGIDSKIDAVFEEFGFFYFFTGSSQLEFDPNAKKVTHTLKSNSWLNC

[3] = target: Recombinant neutrophil collagenase (Homo sapiens, UniProt P22894); assay: inhibition of recombinant neutrophil collagenase (Table 2); format: biochemical; conditions: read-out: NC inhibitory activity
Chain of Recombinant neutrophil collagenase (P22894 101-467): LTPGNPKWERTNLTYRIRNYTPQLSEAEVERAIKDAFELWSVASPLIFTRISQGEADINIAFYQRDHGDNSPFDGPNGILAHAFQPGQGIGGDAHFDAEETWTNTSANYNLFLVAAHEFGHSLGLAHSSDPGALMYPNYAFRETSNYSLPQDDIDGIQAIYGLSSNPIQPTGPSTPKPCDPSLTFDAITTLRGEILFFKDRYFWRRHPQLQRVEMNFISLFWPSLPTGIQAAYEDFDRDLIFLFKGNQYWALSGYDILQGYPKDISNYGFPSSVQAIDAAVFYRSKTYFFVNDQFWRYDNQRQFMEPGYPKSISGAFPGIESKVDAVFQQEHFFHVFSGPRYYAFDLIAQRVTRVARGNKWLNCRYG
Protocol: as §6, §7

[4] = target: T3, Human gingival fibrblast collagenase (Homo sapiens, UniProt P03956); assay: inhibition of human gingival fibroblast collagenase (Table 2); format: biochemical; conditions: read-out: HGFC inhibitory activity
T3 construct: endogenous in cells; host or cells: human gingival fibroblasts
T3 sequence (P03956 100-469): T1 sequence (P03956 100-469)
Protocol: as §6, §7

92kD gelatinase = 92kD gelatinase (Homo sapiens, UniProt P14780); assay: inhibition of 92kD gelatinase (Table 2); format: biochemical; conditions: read-out: 92kD G inhibitory activity
Chain of 92kD gelatinase (P14780 107-707 limits assumed): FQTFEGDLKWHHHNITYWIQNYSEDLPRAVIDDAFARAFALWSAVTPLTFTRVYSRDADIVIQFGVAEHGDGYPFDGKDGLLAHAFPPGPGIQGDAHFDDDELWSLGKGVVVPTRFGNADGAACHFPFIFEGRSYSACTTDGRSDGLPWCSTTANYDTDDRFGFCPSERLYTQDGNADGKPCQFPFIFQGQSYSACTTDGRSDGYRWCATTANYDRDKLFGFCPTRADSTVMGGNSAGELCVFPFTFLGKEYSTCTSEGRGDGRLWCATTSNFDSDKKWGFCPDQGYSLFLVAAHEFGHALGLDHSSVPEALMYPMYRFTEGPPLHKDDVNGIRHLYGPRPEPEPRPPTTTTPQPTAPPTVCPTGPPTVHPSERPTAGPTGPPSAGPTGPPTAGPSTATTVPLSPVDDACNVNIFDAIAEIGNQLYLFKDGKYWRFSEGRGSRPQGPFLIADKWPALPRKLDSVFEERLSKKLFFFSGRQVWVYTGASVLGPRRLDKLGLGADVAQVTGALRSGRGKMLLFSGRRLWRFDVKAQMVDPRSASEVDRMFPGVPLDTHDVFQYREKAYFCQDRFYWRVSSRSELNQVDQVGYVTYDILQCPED

[5] = system: protease activity in open and chronic wound fluids; assay: Azocoll assay of protease activity in open and chronic wound fluids; format: biochemical, human; conditions: for inhibition of Azocoll-degrading proteases in wound fluids: FIG. 6; for effect on proteolytic activity of open and chronic wound fluids: FIG. 5
Protocol: (§1) Fluids were collected from 3 types of human wounds termed closed spontaneously healing wounds, open slowly healing wounds, and open chronic wounds. In the first category were fluids collected from the chest wall of women following mastectomy surgery. Fluids from non-infected wounds that were left open for valid surgical reasons were considered open slowly healing wounds. An occlusive dressing was placed over the wound bed, and fluids were collected after 2-6 hours of occlusion. Finally, fluids were also collected from chronic open wounds by covering the wounds with occlusive dressings. Wounds were considered to be chronic if they were not clinically infected and had been open and not healing for more than 4 weeks.
(§2) The various wound fluids were assayed for matrix metalloproteinase activity using the Azocoll assay essentially as described by Chavira, et al., Analytic Biochemistry (1984), 136:446.
(§3) The fluids were centrifuged, and the supernatants filtered using a 0.45μ sterile Gelman filter. The filtrates were stored frozen at -80° C. until tested for protease activity.
(§4) The effects of four inhibitors on the protease activity present in wound fluids were determined. The inhibitors were: compounds
These inhibitors were compared to certain other inhibitors and these were UL001 [HSCH2 CH(CH2 CH(CH3)2)CO--Phe--Ala--NH2 ] obtained from Peptides International and MP506, obtained from Elastin Products. EDTA (ethylenediamine tetraacetic acid) and PMSF (phenylmethylsulfonyl fluoride) were also studied.
(§5) Briefly, 900 μl of the Azocoll substrate suspension in buffer ([…] in 50 mM TRIS, pH 7.8, 1 mM CaCl2) was added to 1.5 ml microcentrifuge tubes then 50 μl of inhibitor (or buffer) and 50 μl of chronic wound fluid (or collagenase standard) were added to the reaction tube. The reaction tubes were placed at 37° C. in a shaker that inverted the tubes 30 times per minute. After 24 hours of incubation, the reaction tubes were centrifuges at 10,000 X g and the absorbance of the supernatant solution was measured at 520 nm with a Milton-Roy spectrophotometer. Proteolysis of Azocoll substrate generates soluble colored fragments from the insoluble Azocoll substrate. Wound fluid samples were incubated alone or with the inhibitors. Controls included incubation of the Azocoll substrate with the assay buffer to measure spontaneous degradation of the substrate. A standard curve for digestion of the Azocoll substrate was generated by incubation of the Azocoll with crude bacterial collagenase. Protease levels were expressed as net μg of collagenase equivalent per ml of chronic wound fluid. In the figures, certain of the wound fluids are referred to by an individual name.

[6] = system: protease activity of chronic wound fluid; assay: Azocoll assay of protease activity in chronic wound fluid; format: biochemical, human
Protocol: as §1, §2, §3, §4
Stock solutions of the four inhibitors were all prepared at a concentration of 800 μg/ml. Due to different solubility properties of the inhibitors, different techniques were utilized. […] S1209 was dissolved in 1% DMSO then dissolved in 10 mM citrate, pH 5.5, containing 0.05% methyl cellulose. 39A was dissolved in propylene glycol (to give a final concentration of 2.4%) then dissolved in 1 mM CaCl2, 50 mM Tris-Cl, pH 7.8. 21A was dissolved in propylene glycol (2.4%) methyl cellulose (0.05%) and 10 mM citrate, pH 8.
The protease substrate, Azocoll, was obtained from Sigma Chemical Corporation and it is a substrate for collagenase/gelatinase-like metalloproteinase enzymes and general proteases. Clostridium histolyticum collagenase (the crude form of the enzyme) was from Worthington Biochemicals. General chemicals including TRIS buffer, DMSO, and CaCl2 were from Sigma Chemical Corporation.
as §5
For these experiments, due to the different solubility properties of the inhibitors, different techniques were utilized. […] S1209 was dissolved in 1% DMSO then dissolved in 10 mM citrate, pH 5.5, containing 0.05% methyl cellulose. 39A was dissolved in propylene glycol (to give a final concentration of 2.4%) then dissolved in 1 mM CaCl2, […] Tris-Cl, pH 7.8. 21A was dissolved in propylene glycol (2.4%) methyl cellulose (0.05%) and 10 mM citrate, pH 8.

Compound | Ki [1] [nM] | Ki [2] [nM] | Ki (Stromelysin) [nM] | Ki [3] [nM] | Ki [4] [nM] | Ki (92kD gelatinase) [nM] | further results
CNC(=O)[C@H](Cc1c[nH]c2ccccc12)N(C)C(=O)C(CC(=O)NO)CC(C)C (single isomer, unassigned) [Compound 9A, N-[2-isobutyl-3-(N'-hydroxyamidocarbonyl)-propanoyl]-N-methyl-L-tryptophanmethylamide] | 500 | 32 | > 1000 | 29 | 5 | – | –
CC(C)C[C@H](CC(=O)O)C(=O)N[C@@H](Cc1c[nH]c2ccccc12)C(=O)NCCc1ccccc1 [Compound 58, N-[2-Isobutyl-3-hydroxycarbonylpropanoyl]-L-tryptophan-2(phenyl)ethylamide] | – | 79 | 10600 | 26 | – | – | –
C[C@H](NC(=O)[C@H](Cc1c[nH]c2ccccc12)NC(=O)[C@@H](CC(=O)O)NC(=O)OC(C)(C)C)c1ccccc1 [Compound 81] | – | > 10000 | > 10000 | > 10000 | 500 | > 10000 | –
CC(C)C[C@H](CC(=O)O)C(=O)N[C@@H](Cc1c[nH]c2ccccc12)C(=O)NCc1ccccc1 [Compound 57, N-[2-Isobutyl-3-hydroxycarbonylpropanoyl]-L-tryptophan-benzylamide] | – | 57 | 5140 | 20 | 2.2 | 37 | –
C[C@H](NC(=O)[C@H](Cc1c[nH]c2ccccc12)NC(=O)[C@@H](CCC(=O)NO)NC(=O)OC(C)(C)C)c1ccccc1 [Compound 79, Boc-D-gamma-Hydroxamidoglutamyl-L-tryptophan-(S)-methylbenzylamide] | – | > 10000 | > 10000 | > 10000 | 60 | 21100 | –
CCCCCNC(=O)[C@H](Cc1c[nH]c2ccccc12)NC(=O)C(CC(=O)NO)CC(C)C (stereo partly drawn) [Compound 15A, N-[2-isobutyl-3-(N'-hydroxyamidocarbonyl)-propanoyl]-L-tryptophan amylamide] | 30 | – | – | – | 0.3 | – | –
CC(C)C[C@H](CC(=O)O)C(=O)N[C@@H](Cc1c[nH]c2ccccc12)C(=O)NCCCN1CCOCC1 [Compound 48] | – | 145 | 19300 | 32 | – | 65 | –
CC(C)CC(CS)C(=O)N[C@@H](Cc1ccccc1)C(=O)N[C@@H](C)C(N)=O (some centres unmarked) [UL001] | – | – | – | – | – | – | inhibition of Azocoll-degrading proteases in wound fluids [5]: very effectively
CCCCCCCCCCCCNC(=O)[C@H](Cc1c[nH]c2ccccc12)NC(=O)C(CC(=O)NO)CC(C)C (single isomer, unassigned) [Compound 19A, N-[2-isobutyl-3-(N'-hydroxyamidocarbonyl)-propanoyl]-L-tryptophan dodecylamide] | 300 | 0.37 | 40 | 0.62 | – | 1.29 | –
CNC(=O)[C@H](Cc1ccc2ccccc2c1)NC(=O)C(CC(=O)NO)CC(C)C (single isomer, unassigned) [Compound 11A, N-[2-isobutyl-3-(N-hydroxyamidocarbonyl)-propanoyl]-L-3-(2-naphthyl)-alanine methylamide] | 15 | – | – | – | 0.3 | – | –
CC(C)CC(CC(=O)NO)C(=O)N[C@@H](Cc1c[nH]c2ccccc12)C(=O)NCCCCCCNC(=O)OCc1ccccc1 (stereo partly drawn) [Compound 27A, N-[L-2-isobutyl-3-(N'-hydroxyamidocarbonyl)-propanoyl]-L-tryptophan(6-phenyl-methoxycarbonyl-1-aminohexyl)amide] | 13 | 2.9 | 94 | 21 | 0.1 | – | –
O=C(O)CN(CCN(CC(=O)O)CC(=O)O)CC(=O)O [EDTA, ethylenediamine tetraacetic acid, reference compound] | – | – | – | – | – | – | effective concentrations (order of magnitude) ([6]; FIG. 4): mM; inhibition of protease activity of a chronic wound fluid ([6]; FIG. 4): effectively inhibited; reduction of protease activity ([6]; FIG. 4, EDTA at mM concentrations): approximately 96%; effect on proteolytic activity of open and chronic wound fluids [5]: very effective inhibitors; inhibition of Azocoll-degrading proteases in wound fluids [5]: very effectively; reduction of proteolytic activity in open or chronic wound fluids ([5]; fluids with high levels of Azocoll-degrading protease activity): 95%
O=S(=O)(F)Cc1ccccc1 [PMSF, phenylmethylsulfonyl fluoride, reference compound] | – | – | – | – | – | – | inhibition of protease activity of a chronic wound fluid ([6]; FIG. 4): not an effective inhibitor except at the highest concentration; reduction of proteolytic activity ([6]; FIG. 4, 500 μM): approximately 65%; effect on levels of protease activity at lower concentrations ([6]; FIG. 4, PMSF 500 μM and 50 μM): slightly increase the levels of protease activity; effect on proteolytic activity of open and chronic wound fluids [5]: did not significantly reduce the proteolytic activity; also recorded: did not reduce the levels of proteolytic activity
CNC(=O)C(Cc1ccc(OC)cc1)NC(=O)C(CC(=O)NO)CC(C)C (centres unmarked) [Compound S1209] | – | – | – | – | – | – | inhibition of protease activity of chronic wound fluid ([6]; FIG. 7, highest concentration (800 μg/ml)): 70%; inhibition of Azocoll-degrading proteases in wound fluids [5]: very effectively; also recorded: very effective inhibitors
CC(C)C[C@H](CC(=O)O)C(=O)N[C@@H](Cc1c[nH]c2ccccc12)C(=O)NCCc1ccc(S(N)(=O)=O)cc1 [Compound 59] | – | 265 | 38200 | 85 | – | – | –
CC(C)CC(CC(=O)NO)C(=O)N[C@@H](Cc1c[nH]c2ccccc12)C(=O)NC1CCCCC1 (stereo partly drawn) [Compound 28A, N-[L-2-Isobutyl-3-(N'-hydroxyamidocarbonyl)-propanoyl]-L-tryptophan cyclohexylamide] | 50 | 4 | 78 | 1 | 0.1 | – | –
